Structures can show the parent of a compound that is named as a salt.
Legend:
[1] = molecular target: T1, Pyrococcus furiosus α-amylase, purified, wild type, SEQ ID NO:1 (Pyrococcus furiosus, UniProt P49067); experiment: standard activity assay in the presence of denaturants; assay type: biochemical; conditions: reagent present at 1M, 98° C.
T1 construct: made in house; host or cells: Pyrococcus furiosus DSM 3638, native cells (not recombinant); cytosolic fraction, three ion exchange steps and electroelution
T1 sequence (P49067 2-649): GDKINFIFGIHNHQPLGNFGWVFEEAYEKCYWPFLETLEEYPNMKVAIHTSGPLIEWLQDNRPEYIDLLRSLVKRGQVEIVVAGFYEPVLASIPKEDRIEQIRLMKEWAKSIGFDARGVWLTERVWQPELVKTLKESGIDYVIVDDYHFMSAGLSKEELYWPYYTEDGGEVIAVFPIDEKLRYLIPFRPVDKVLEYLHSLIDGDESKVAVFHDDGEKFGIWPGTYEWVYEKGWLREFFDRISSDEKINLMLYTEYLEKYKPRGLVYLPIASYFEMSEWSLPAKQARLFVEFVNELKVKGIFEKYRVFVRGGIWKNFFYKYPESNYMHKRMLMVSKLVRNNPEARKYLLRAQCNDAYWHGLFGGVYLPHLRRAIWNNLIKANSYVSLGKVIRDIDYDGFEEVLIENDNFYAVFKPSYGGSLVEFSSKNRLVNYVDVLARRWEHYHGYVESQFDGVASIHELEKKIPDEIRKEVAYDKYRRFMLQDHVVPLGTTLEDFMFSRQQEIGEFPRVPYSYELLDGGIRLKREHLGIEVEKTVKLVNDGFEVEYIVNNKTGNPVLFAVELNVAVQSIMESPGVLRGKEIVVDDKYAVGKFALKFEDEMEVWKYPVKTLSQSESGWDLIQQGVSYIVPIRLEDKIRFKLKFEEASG
Experimental: The dextrinizing activity of the α-amylase was determined using a modification of the assay of Manning and Campbell (Manning et al, J. Biological Chem. 236(11):2952-2957 (1961)). To 20 μl of sample were added 20 μl of 1% soluble starch and 20 μl of 100 mM sodium phosphate, pH 7.0. Controls were prepared using an equal volume of the appropriate buffer in place of the enzyme solution. The samples were incubated at 92° C. for 10 minutes and the reaction terminated by cooling in ice water. Color was developed by the addition of 15 μl of an iodine solution (4% KI, 1.25% I). An additional 1 ml of distilled water was added to each sample to dilute the color of the sample to a measurable range. The absorbance was read at 600 nm with a Pharmacia LB Ultraspec III Spectrophotometer. One unit of α-amylase activity was defined as the amount of protein which hydrolyzed 1 mg of starch per minute.
The extent of activity loss induced by the denaturants, urea and guanidine HCl, was determined using a standard activity assay in which the above-mentioned reagents were present in 1M concentrations. At 98° C. the residual activity in the presence of these denaturants was 86.5% and 73% for urea and guanidine HCl, respectively.

[2] = molecular target: T1, Pyrococcus furiosus α-amylase, purified, wild type, SEQ ID NO:1; experiment: activity stained native-PAGE after heating samples with additive; assay type: biochemical; conditions: sample heated 15 minutes
Experimental: Samples were heated 15 min in the following: Lane 1, 100 mM sodium phosphate pH 7.0; Lane 2, 5 mM EDTA; Lane 3, % SDS; Lane 4, 12% β-mercaptoethanol. The samples were run on a native gel (8% acrylamide), containing 0.02% starch, and stained as described in the Examples.
Activity staining was accomplished by the incorporation of starch into the acrylamide matrix of the resolving gel. When preparing the gels, as described above, 0.05% soluble starch was used in place of distilled water when the gels were cast. To observe the thermophilic amylase activity following electrophoresis the spacers and the gel left between the glass plates were sealed with Saran Wrap to prevent dessication. The gel, between the plates, was then incubated for 30 minutes at 98° C., then stained with iodine solution (see above). […] Following this procedure it was still possible to stain the gel with Coomassie blue to visualize the proteins within the gel.
To determine the effect of denaturants and metal ions on the activity of P. furiosus α-amylase activity, stained native-PAGE or in vitro activity assays were utilized.

SMILES	residual activity in the presence of denaturant [1] [%]	also measured
NC(N)=O [urea]	86.5	–
OCCS [β-mercaptoethanol]	–	effect on activity (activity stained native-PAGE) ([2]; 2% β-mercaptoethanol): no significant effect on activity
O=C(O)CN(CCN(CC(=O)O)CC(=O)O)CC(=O)O [EDTA]	–	effect on activity (activity stained native-PAGE) ([2]; 5 mM EDTA): no significant effect on activity
N=C(N)N [guanidine HCl]	73	–

Source: patent US5578479A, “Alpha-amylase from hyperthermophilic archaebacterium” (The Johns Hopkins University, priority 1992, dated 1996)
